Where two headings read alike, the source gives them in different places. Non-standard residues stand in square brackets, D forms with d. Residues, ends and D or L forms follow the SMILES beside them. Primed or numbered codes have the meaning given here. No end group written: not given here. *: point of attachment. 5FAM = O=C1OC2(c3ccc(O)cc3Oc3cc(O)ccc32)c2ccc(C(=O)*)cc21; Me′ = methyl group capping the C-terminus; F(-Me) = not defined here; Meb = Cc1ccc(C*)cc1
Assays:
[1] = target: T1, interactions between Talin 1 (TLN1) and integrin subunit beta (ITGB) (Homo sapiens, UniProt Q9Y490); assay: Flip-flop detection mechanism on DNA origami (LgBit/SmBit luminescence), inhibitor screening; type: biochemical; details: inhibition of binding between TLN1 and ITBG; for IC50: read-out: Inhibitory activity
T1 construct: LgBit or SmBit (N-terminal of the HaloTag); made in house
Outline: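 Peptide inhibitors (13-mer, modified from ITGB3 intracellular region) tested in flip-flop system: HaloTag fusions on DNA origami carrying TLN1 or ITGB1 subunits with LgBit/SmBit at N-termini. Inhibiting TLN1–ITGB binding lets LgBit-SmBit assemble, giving luminescence; IC50 calculated from this signal.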

Talin 1 (TLN1) = Talin 1 (TLN1) (UniProt Q9Y490); assay: flip-flop luminescence detection on DNA origami, inhibition of the TLN1-ITGB complex
Talin 1 (TLN1), sequence (Q9Y490 1-405): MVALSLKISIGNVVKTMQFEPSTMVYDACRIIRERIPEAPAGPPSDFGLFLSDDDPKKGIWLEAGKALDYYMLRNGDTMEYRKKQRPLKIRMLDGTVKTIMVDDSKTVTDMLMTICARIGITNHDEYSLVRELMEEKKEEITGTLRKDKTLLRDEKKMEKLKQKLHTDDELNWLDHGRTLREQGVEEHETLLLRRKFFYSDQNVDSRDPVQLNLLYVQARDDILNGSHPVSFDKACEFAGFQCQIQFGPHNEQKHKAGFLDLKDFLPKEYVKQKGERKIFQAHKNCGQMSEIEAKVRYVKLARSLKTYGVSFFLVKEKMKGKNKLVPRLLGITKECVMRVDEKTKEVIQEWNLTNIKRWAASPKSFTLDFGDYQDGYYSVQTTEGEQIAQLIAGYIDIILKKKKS

Row | Molecule | Inhibitory activity [1] | IC50 (Talin 1 (TLN1)) | further results
1 | CSCC[C@H](NC(=O)[C@H](Cc1c[nH]c2ccccc12)NC(=O)[C@H](CCCCN)NC(=O)[C@H](CS)NC(=O)[C@H](CC(N)=O)NC(=O)[C@H](CCSC)NC(=O)[C@H](CCCCN)NC(=O)[C@H](CCC(=O)O)NC(=O)[C@H](CCCCN)NC(=O)[C@H](CCC(=O)O)NC(=O)[C@H](Cc1ccccc1)NC(=O)[C@@H](N)CCCCN)C(=O)N[C@@H](CCCCN)C(=O)O [FIYM11] (H-KFEKEKMNCKWMK-OH) | no inhibition | – | –
2 | CSCC[C@H](NC(=O)[C@H](CCCNC(=N)N)NC(=O)[C@H](CCC(=O)O)NC(=O)[C@H](CCCCN)NC(=O)[C@H](CCC(=O)O)NC(=O)[C@H](Cc1ccccc1)NC(=O)[C@@H](N)CCCCN)C(=O)N[C@@H](CC(N)=O)C(=O)N[C@@H](CS)C(=O)N[C@@H](CCCCN)C(=O)N[C@@H](Cc1c[nH]c2ccccc12)C(=O)N[C@@H](CCSC)C(=O)N[C@H](C(=O)O)[C@@H](C)O [FIYM28] (H-KFEKERMNCKWMT-OH) | no inhibition | – | –
3 | CC[C@H](C)[C@H](NC(=O)[C@@H]1CCCN1C(=O)[C@H](CC(N)=O)NC(=O)[C@H](CCC(=O)O)NC(=O)CNC(=O)[C@@H](NC(=O)[C@H](CC(=O)O)NC(=O)[C@H](Cc1c[nH]c2ccccc12)NC(=O)[C@@H](N)CCCCN)[C@@H](C)O)C(=O)N[C@@H](Cc1ccc(O)cc1)C(=O)N[C@@H](CCCCN)C(=O)O [FIYM4] (H-KWDTGENPIYK-OH) | no inhibition | – | –
4 | CSCC[C@H](NC(=O)[C@H](CC(N)=O)NC(=O)[C@@H](N)CCC(=O)O)C(=O)N[C@@H](CCCCN)C(=O)N[C@@H](CCC(=O)O)C(=O)N[C@@H](CCCCN)C(=O)N[C@@H](CCCCN)C(=O)N[C@@H](CC(=O)O)C(=O)N[C@@H](Cc1c[nH]c2ccccc12)C(=O)N[C@@H](C)C(=O)N[C@@H](CCCCN)C(=O)N[C@@H](Cc1ccccc1)C(=O)N[C@H](C(=O)O)[C@@H](C)O [FIYM3] (H-ENMKEKKDWAKFT-OH) | no inhibition | – | –
5 | CSCC[C@H](NC(=O)[C@H](CCCCN)NC(=O)[C@H](CCC(=O)O)NC(=O)[C@H](CCCCN)NC(=O)[C@H](CCC(=O)O)NC(=O)[C@H](Cc1ccccc1)NC(=O)[C@@H](N)CCSC)C(=O)N[C@@H](CC(N)=O)C(=O)N[C@@H](CS)C(=O)N[C@@H](CCCCN)C(=O)N[C@@H](Cc1c[nH]c2ccccc12)C(=O)N[C@@H](CCSC)C(=O)N[C@H](C(=O)O)[C@@H](C)O [FIYM47] (H-MFEKEKMNCKWMT-OH) | – | – | IC50 ([1]; µM): 71.4 µM
6 | CSCC[C@H](NC(=O)[C@H](CCCCN)NC(=O)[C@H](CCC(=O)O)NC(=O)[C@H](CCCNC(=N)N)NC(=O)[C@H](CCC(=O)O)NC(=O)[C@H](Cc1ccccc1)NC(=O)[C@@H](N)CCCCN)C(=O)N[C@@H](CCSC)C(=O)N[C@@H](CS)C(=O)N[C@@H](CCCCN)C(=O)N[C@@H](Cc1c[nH]c2ccccc12)C(=O)N[C@@H](CCSC)C(=O)N[C@H](C(=O)O)[C@@H](C)O [FIYM32] (H-KFEREKMMCKWMT-OH) | no inhibition | – | –
7 | CSCC[C@H](NC(=O)[C@H](CCCCN)NC(=O)[C@H](CCC(=O)O)NC(=O)[C@H](CCCCN)NC(=O)[C@H](CCC(=O)O)NC(=O)[C@H](Cc1ccccc1)NC(=O)[C@H](CCCCN)NC(=O)[C@H](C)NC(=O)[C@H](Cc1ccccc1)NC(=O)[C@@H](N)CCC(=O)O)C(=O)N[C@@H](CC(N)=O)C(=O)N[C@@H](C)C(=O)N[C@@H](CCCCN)C(=O)N[C@@H](Cc1c[nH]c2ccccc12)C(=O)N[C@@H](CC(=O)O)C(=O)N[C@H](C(=O)O)[C@@H](C)O [FIYM5] (H-EFAKFEKEKMNAKWDT-OH) | no inhibition | – | –
8 | CSCC[C@H](NC(=O)[C@H](CCCCN)NC(=O)[C@H](CCC(=O)O)NC(=O)[C@H](CCCCN)NC(=O)[C@H](CCC(=O)O)NC(=O)[C@H](Cc1ccccc1)NC(=O)[C@@H](N)CCCCN)C(=O)N[C@@H](CC(N)=O)C(=O)N[C@@H](CCSC)C(=O)N[C@@H](CCCCN)C(=O)N[C@@H](Cc1c[nH]c2ccccc12)C(=O)N[C@@H](CCSC)C(=O)N[C@H](C(=O)O)[C@@H](C)O [FIYM35] (H-KFEKEKMNMKWMT-OH) | no inhibition | – | –
9 | CSCC[C@H](NC(=O)[C@H](CCCCN)NC(=O)[C@H](CCC(=O)O)NC(=O)[C@H](CCCCN)NC(=O)[C@H](CCC(=O)O)NC(=O)[C@@H](N)Cc1ccccc1)C(=O)N[C@@H](CC(N)=O)C(=O)N[C@@H](CS)C(=O)N[C@@H](CCCCN)C(=O)N[C@@H](Cc1c[nH]c2ccccc12)C(=O)N[C@@H](CCSC)C(=O)N[C@H](C(=O)O)[C@@H](C)O [FIYM23] (H-FEKEKMNCKWMT-OH) | – | – | IC50 [1]: 444 µM
10 | CSCC[C@H](NC(=O)[C@H](CCCCN)NC(=O)[C@H](CCC(=O)O)NC(=O)[C@H](CCCCN)NC(=O)[C@H](CCC(=O)O)NC(=O)[C@H](Cc1ccccc1)NC(=O)[C@@H](N)CCCCN)C(=O)N[C@@H](CC(N)=O)C(=O)N[C@@H](CSCc1ccc(C)cc1)C(=O)N[C@@H](CCCCN)C(=O)N[C@@H](Cc1c[nH]c2ccccc12)C(=O)N[C@@H](CCSC)C(=O)N[C@H](C(=O)O)[C@@H](C)O [FIYM41] (H-KFEKEKMNC(Meb)KWMT-OH) | no inhibition | – | –
11 | CSCC[C@H](NC(=O)[C@H](CCCNC(=N)N)NC(=O)[C@H](CCC(=O)O)NC(=O)[C@H](CCCCN)NC(=O)[C@H](CCC(=O)O)NC(=O)[C@H](Cc1ccccc1)NC(=O)[C@@H](N)CCCCN)C(=O)N[C@@H](CCSC)C(=O)N[C@@H](CS)C(=O)N[C@@H](CCCCN)C(=O)N[C@@H](Cc1c[nH]c2ccccc12)C(=O)N[C@@H](CCSC)C(=O)N[C@H](C(=O)O)[C@@H](C)O [FIYM33] (H-KFEKERMMCKWMT-OH) | no inhibition | – | –
12 | CSCC[C@H](NC(=O)[C@H](CCCCN)NC(=O)[C@H](CCC(=O)O)NC(=O)[C@H](CCCCN)NC(=O)[C@H](CCC(=O)O)NC(=O)[C@H](Cc1ccccc1)NC(=O)[C@@H](N)CCCCN)C(=O)N[C@@H](CC(N)=O)C(=O)N[C@@H](CS)C(=O)N[C@@H](CCCCN)C(=O)N[C@@H](Cc1c[nH]c2ccccc12)C(=O)N[C@@H](CC(=O)O)C(=O)N[C@H](C(=O)O)[C@@H](C)O [FIYM8] (H-KFEKEKMNCKWDT-OH) | no inhibition | – | –
13 | KF(-CI)EKEKMNCKWMT (KFEKEKMNCKWMT) [FIYM18] | no inhibition | – | –
14 | CSCC[C@H](NC(=O)[C@H](CCCNC(=N)N)NC(=O)[C@H](CCC(=O)O)NC(=O)[C@H](CCCCN)NC(=O)[C@H](CCC(=O)O)NC(=O)[C@H](Cc1ccccc1)NC(=O)[C@@H](N)CCCNC(=N)N)C(=O)N[C@@H](CC(N)=O)C(=O)N[C@@H](CS)C(=O)N[C@@H](CCCCN)C(=O)N[C@@H](Cc1c[nH]c2ccccc12)C(=O)N[C@@H](CCSC)C(=O)N[C@H](C(=O)O)[C@@H](C)O [FIYM30] (H-RFEKERMNCKWMT-OH) | no inhibition | – | –
15 | CSCC[C@H](NC(=O)[C@H](CCCCN)NC(=O)[C@H](CCC(=O)O)NC(=O)[C@H](CCCCN)NC(=O)[C@H](CCC(=O)O)NC(=O)[C@H](C)NC(=O)[C@@H](N)CCCCN)C(=O)N[C@@H](CC(N)=O)C(=O)N[C@@H](C)C(=O)N[C@@H](CCCCN)C(=O)N[C@@H](C)C(=O)N[C@@H](CC(=O)O)C(=O)N[C@H](C(=O)O)[C@@H](C)O [FIYM2] (H-KAEKEKMNAKADT-OH) | no inhibition | – | –
16 | KYEKEKMNAKWDT [FIYM50] | – | 1860 µM | –
17 | KFEKEKMNC(Me)KWMT [FIYM44] | – | 1070 µM | –
18 | DFEKEKMNCKWMT [FIYM52] | – | 8130 µM | –
19 | KYEKEKMNCKWMT [FIYM51] | – | 1830 µM | –
20 | K[F(-Me)]EKEKMNCKWMT (reading uncertain; also: printed as KF(-Me)EKEKMNCKWMT) [FIYM19] | – | 212 µM | –
21 | RFEKEKMMCKWMT [FIYM31] | – | 1040 µM | –
22 | 5FAM-KFEKEKMNCKWMT [FIYM21] | – | 38.1 µM | –
23 | Ace-KFEKEKMNCKWMT-{Me′} [FIYM15] | – | 41.2 µM | –
24 | EFEKEKMNCKWMT [FIYM53] | – | 42000 µM | –

— patent EP4793641A1, “NOVEL METHOD FOR ANALYZING BIOMOLECULAR INTERACTIONS” (Kyoto University, priority 2023, dated 2025)
